# Measurements as given in patent US8399525B2, “Treatment of gaucher disease with specific pharmacological chaperones and monitoring treatment using surrogate markers” (Amicus Therapeutics, Inc., priority 2007, dated 2013).
# Test system: IgG
# Experiment: IgG measurement (ELISA) in L444P transgenic mice
# Assay type: in vivo
# Description: Isofagomine treatment. Mice were administered isofagomine tartrate in their drinking water, ad libitum, at a concentration of 20 mg/kg.
# Surrogate marker measurement. At the end of 4, 12, or 24 weeks, mice were sacrificed and evaluated for (i) enhancement of GCase enzyme activity in liver, spleen, lung and brain; (ii) chitotriosidase activity; (ii) body, spleen, and liver weight; and (iv) serum IgG, cholesterol, and liver enzyme levels. In addition, chaperone concentration in plasma and in the foregoing tissues will also be determined.
# d. IgG measurement: The mouse IgG ELISA quantitation kit (Bethyl Laboratories, Cat # E90-131) was used for determination of IgG concentration in plasma. 96-well plates were coated with 100 μl of the coating buffer (made by dissolving 1 capsule of coating antigen in 100 ml of double deionized water) and incubated for 1 hr at room temperature. The wells were then washed 3 times with 150 μl of wash buffer (50 mM Tris HCl (pH 8.0); 0.14 M NaCl; 0.05% Tween 20) followed by aspiration after each wash). […]
# Following incubation, wells were washed 5 times with wash buffer to remove the unbound sample 100 μl of secondary antibody (1:20000 in diluent buffer) was added, followed by incubation again for 1 hour at RT. […] The reaction was stopped by adding 100 μl of 1M phosphoric acid, and the color intensity was measured at 450 nm in the plate reader. […]
compound,measurement,setting,value
"OC[C@H]1CNC[C@@H](O)[C@@H]1O [isofagomine, (3R,4R,5R)-5-(hydroxymethyl)-3,4-piperidinediol]",serum IgG levels,"by 2 weeks of treatment, persisted to 4 and 12 weeks, versus untreated",significant decrease
same,IgG,"washout study, 10 mg/kg/day, after 4 weeks of treatment",significantly decreased
